Measurements reported in ChEMBL document CHEMBL1201862, “PubChem BioAssay data set” (2004).
Calls of active or inactive are those of the source.

Key:
[1] = target: T1, Short transient receptor potential channel 4 (Mus musculus, UniProt Q9QUQ5); assay: potentiation of DAMGO-evoked TRPC4 calcium signal – cell-based, HEK293 TRPC4/mu-opioid, Fluo-4 calcium, EC20 DAMGO, dose response (AID 434941); type: functional
T1 sequence (Q9QUQ5 whole entry): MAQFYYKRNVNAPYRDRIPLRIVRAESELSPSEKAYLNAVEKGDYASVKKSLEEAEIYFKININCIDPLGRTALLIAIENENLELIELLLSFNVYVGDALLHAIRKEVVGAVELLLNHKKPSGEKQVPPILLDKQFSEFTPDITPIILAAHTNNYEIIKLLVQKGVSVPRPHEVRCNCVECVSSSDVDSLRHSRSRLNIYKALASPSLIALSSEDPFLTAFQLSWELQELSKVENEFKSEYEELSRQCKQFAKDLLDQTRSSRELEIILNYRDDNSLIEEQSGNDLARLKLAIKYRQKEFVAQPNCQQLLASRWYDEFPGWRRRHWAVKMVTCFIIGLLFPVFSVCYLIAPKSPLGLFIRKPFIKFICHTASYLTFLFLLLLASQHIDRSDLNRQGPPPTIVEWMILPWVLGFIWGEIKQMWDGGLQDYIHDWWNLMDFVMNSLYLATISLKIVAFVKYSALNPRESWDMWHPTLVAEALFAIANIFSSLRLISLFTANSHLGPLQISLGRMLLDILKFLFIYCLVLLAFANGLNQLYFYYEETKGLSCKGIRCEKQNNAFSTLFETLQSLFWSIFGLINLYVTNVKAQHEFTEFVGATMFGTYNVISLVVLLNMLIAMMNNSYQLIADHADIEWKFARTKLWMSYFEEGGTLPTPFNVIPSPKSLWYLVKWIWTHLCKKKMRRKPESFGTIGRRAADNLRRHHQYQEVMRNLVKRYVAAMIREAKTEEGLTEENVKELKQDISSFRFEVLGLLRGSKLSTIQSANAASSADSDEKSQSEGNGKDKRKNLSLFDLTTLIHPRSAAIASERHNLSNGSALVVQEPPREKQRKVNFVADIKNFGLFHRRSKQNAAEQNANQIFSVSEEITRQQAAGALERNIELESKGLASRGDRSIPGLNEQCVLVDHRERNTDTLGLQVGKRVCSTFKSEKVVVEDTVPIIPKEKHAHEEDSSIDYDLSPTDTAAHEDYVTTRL

[2] = target: 5-hydroxytryptamine receptor 2A (Mus musculus, UniProt P35363); type: functional, cell-based;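 further: CHO-K1 cells with tagged receptor and beta-arrestin; agonist potency measured as compound-induced activation of the receptor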
5-hydroxytryptamine receptor 2A, sequence (P35363 whole entry, the tested form may be a part): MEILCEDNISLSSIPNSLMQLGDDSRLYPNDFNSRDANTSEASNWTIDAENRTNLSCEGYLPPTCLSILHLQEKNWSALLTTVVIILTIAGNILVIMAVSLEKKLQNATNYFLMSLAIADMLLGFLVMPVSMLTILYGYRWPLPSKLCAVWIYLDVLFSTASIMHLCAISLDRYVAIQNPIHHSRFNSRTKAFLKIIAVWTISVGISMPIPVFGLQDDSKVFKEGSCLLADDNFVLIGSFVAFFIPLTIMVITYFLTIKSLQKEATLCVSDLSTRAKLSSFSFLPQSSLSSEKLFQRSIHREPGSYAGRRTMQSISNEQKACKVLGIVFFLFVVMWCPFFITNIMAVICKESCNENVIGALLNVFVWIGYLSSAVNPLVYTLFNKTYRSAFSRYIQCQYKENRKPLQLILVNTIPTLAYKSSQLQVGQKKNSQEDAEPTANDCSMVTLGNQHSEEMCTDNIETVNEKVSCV

[3] = target: NACHT, LRR and PYD domains-containing protein 1 (Homo sapiens, UniProt Q9C000); assay: NALP1 inhibitors in yeast, dose response, luminescent (AID 488860); type: functional
NACHT, LRR and PYD domains-containing protein 1, sequence (Q9C000 1-1212 limits assumed): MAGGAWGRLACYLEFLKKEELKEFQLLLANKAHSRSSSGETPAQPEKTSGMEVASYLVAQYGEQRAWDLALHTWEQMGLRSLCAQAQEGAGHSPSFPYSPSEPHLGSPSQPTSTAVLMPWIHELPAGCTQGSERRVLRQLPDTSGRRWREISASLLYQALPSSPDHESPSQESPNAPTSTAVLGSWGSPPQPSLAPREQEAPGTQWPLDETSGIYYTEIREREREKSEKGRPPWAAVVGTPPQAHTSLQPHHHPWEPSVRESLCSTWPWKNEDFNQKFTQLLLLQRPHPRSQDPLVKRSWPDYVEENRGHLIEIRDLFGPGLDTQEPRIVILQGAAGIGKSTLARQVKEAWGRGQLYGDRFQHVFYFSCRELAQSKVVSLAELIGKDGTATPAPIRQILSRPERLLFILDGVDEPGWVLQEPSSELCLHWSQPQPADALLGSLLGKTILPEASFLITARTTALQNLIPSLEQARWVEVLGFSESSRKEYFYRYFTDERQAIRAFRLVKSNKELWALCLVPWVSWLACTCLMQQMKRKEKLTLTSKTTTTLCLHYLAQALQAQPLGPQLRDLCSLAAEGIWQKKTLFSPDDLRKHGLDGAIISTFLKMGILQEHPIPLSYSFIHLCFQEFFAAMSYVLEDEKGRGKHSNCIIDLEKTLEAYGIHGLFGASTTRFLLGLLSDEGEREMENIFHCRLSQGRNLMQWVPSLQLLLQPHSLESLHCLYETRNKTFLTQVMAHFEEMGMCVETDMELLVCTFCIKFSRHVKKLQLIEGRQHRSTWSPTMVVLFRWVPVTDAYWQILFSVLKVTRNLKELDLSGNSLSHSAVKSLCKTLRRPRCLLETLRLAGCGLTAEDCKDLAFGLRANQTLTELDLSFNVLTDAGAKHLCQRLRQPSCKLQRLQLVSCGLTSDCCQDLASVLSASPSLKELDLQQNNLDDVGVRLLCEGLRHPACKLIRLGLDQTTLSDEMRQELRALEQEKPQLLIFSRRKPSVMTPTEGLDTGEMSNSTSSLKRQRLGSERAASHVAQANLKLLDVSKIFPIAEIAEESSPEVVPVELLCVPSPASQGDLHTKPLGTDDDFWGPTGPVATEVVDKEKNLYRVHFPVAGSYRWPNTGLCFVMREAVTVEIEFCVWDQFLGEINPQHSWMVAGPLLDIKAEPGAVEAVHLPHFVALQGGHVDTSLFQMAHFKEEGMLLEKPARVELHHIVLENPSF
NACHT, LRR and PYD domains-containing protein 1, sequence (Q9C000 1213-1473 limits assumed): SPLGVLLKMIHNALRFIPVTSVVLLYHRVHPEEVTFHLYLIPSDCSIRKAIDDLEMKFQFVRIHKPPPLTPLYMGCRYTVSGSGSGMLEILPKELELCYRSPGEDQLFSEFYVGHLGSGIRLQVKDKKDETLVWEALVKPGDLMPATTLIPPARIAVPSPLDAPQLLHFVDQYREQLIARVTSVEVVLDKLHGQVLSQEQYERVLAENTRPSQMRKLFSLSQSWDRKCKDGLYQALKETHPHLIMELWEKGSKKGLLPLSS

[4] = system: Saccharomyces cerevisiae; assay: S. cerevisiae Caspase-1/ASC signal blockers IC50, NALP1 inhibitor project selectivity test (AID 488863); type: functional, organism-based
[5] = viability of uninfected HEp-2 cells – cell-based, HTS, cytotoxicity control for RSV inhibitor project, dose response (AID 2410); type: functional; conditions: human respiratory syncytial virus
[6] = target: Mu-type opioid receptor (Homo sapiens, UniProt P35372); type: functional, cell-based;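 further: U2OS cells with beta-arrestin recruitment to OPRM1 by beta-gal complementation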
Mu-type opioid receptor, sequence (P35372 whole entry): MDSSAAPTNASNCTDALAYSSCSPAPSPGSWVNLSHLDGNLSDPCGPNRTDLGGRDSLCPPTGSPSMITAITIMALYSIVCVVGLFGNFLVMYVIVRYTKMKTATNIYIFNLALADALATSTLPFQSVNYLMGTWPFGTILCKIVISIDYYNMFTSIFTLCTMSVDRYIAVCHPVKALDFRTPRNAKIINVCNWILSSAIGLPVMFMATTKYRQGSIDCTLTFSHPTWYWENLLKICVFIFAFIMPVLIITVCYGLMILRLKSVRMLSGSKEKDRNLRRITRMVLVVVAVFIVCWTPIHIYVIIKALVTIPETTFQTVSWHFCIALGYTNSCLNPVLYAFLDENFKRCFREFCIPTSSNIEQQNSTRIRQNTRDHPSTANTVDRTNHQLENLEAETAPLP

EC50 [1]	SMILES	EC50 [2]	IC50 [3]	IC50 [4]	CC50 [5]	EC50 [6]
0.3 µM (active)	c1ccc(-c2nc(N3CCNCC3)nc3ccccc23)cc1					
	COc1ccc(C)cc1NC(=O)c1ccc(CN2CCN(c3ccccc3)CC2)cc1	76.1 µM (inactive)	> 100 µM (inactive)	> 100 µM (inactive)	21.4 µM (active)	92.5 µM (inactive)
